Measured values published in patent US20060286608A1, “Method for screening transglutaminase 2 inhibitor or activator” (priority 2005, published 2006).
Read-outs that look alike come from different tables or passages of the source. Residues, ends and D or L forms follow the SMILES beside them. *: point of attachment. Cbz = O=C(OCc1ccccc1)*; OtBu = CC(C)(C)O*

Tests used:
[1] = tested on: BV-2 microglia; assay: Nitric oxide measurement (Griess reaction) in LPS-activated BV-2 microglia; assay type: cell-based, murine; conditions: BV-2 cells treated with LPS and NMMA (0, 50, 100 μM), 24 hours
Protocol: (§1) The BV-2 cells were grown and maintained in DMEM (Dulvecco's modified Eagle's medium) (Invitrogen) supplemented with 10% FCS (fetal calf serum) and penicillin/streptomycin at 37° C. in a humidified incubator under 5% CO2. To activate BV-2, the cells were treated with LPS (100 μg/ml; Sigma) for 24 hours. After LPS treatment for 24 hours with or without inducible nitric-oxide synthase(iNOS) inhibitor, 0, 50, and 100 μM N^G-monomethyl-L-arginine(L-NMMA) (Sigma), proteins were extracted with radioimmunoprecipitation assay buffer (1× phosphate-buffered saline (PBS), 1% Nonidet P-40, 0.5% sodium deoxycholate and 0.1% SDS) containing protease inhibitors from BV-2 harvest, followed by analysis for TGase 2 activity.
Accumulated nitric oxide was measured in the cell supernatant after LPS treatment for 24 hours by Griess reaction. A 200 μl aliquot of the cell supernatant in each well of a 96-well microtiter plate was mixed with 100 μl of the Griess reagent [1% sulfanilamide (Fluka), 0.1% naphthylethylenediamine dihydrochloride (Fluka), 2.5% H3PO4], and the absorbance was read at 540 nm using a plate reader.

[2] = tested on: TGase 2; assay: TGase activity assay in LPS-activated BV-2 microglia; assay type: cell-based, murine; conditions: BV-2 cells treated with LPS and NMMA (0, 50, 100 μM), 24 hours
Protocol: as §1
Enzymatic activity was determined using a modified TGase assay method for measuring the incorporation of [1,4-^14C] putrescine into succinylated casein.

[3] = biological target: T1, TGase 2 (Homo sapiens, UniProt P21980); assay: Effect of TGase inhibitors on reduced I-κBα in SH-SY5Y/TG cells; assay type: cell-based; conditions: SH-SY5Y/TG cells incubated for 30 min with TGase inhibitor, Western blotting
T1 construct: carry a pcDNA5/FRT vector containing a full-length human TGase 2 gene; expressed in transfected cells; host or cells: human neuroblastoma SH-SY5Y, Flp-In system, pcDNA5/FRT vector
T1 sequence (P21980 1-687): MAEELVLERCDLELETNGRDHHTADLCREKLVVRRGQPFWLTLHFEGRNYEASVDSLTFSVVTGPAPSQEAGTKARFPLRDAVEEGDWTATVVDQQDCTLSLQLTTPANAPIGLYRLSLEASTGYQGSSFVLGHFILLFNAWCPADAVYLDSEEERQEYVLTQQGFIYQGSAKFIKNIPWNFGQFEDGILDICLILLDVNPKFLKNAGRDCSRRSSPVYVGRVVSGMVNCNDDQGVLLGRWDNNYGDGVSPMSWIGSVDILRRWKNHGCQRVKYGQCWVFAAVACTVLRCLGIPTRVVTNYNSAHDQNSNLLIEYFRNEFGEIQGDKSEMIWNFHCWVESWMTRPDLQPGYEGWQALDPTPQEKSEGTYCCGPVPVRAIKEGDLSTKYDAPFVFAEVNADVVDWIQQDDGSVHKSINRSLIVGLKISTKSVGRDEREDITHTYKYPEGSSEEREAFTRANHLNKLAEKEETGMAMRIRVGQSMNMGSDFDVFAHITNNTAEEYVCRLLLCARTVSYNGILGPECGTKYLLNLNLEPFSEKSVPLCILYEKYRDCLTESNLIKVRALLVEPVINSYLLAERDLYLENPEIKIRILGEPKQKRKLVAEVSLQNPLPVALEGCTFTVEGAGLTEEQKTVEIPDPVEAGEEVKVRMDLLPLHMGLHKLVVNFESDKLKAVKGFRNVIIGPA
Source text: Cystamine is known to inhibit TGase activity by blocking the access of a glutamine residue in substrate proteins to the TGase active site. Iodoacetamide (Sigma) is also known to inhibit TGase activity as a strong competitive irreversible inhibitor. […] E2 (DPVKG: SEQ. ID. NO. 6) and R2 (KVLDGQDP: SEQ. ID. NO. 7) were designed to contain a pro-elafin sequence and a pro-elafin/antiflamnin sequence, respectively, therein. […] In order to examine the effect of TGase inhibitors on the decrease in I-κBα level, the SH-SY5Y/TG culture was treated with different inhibitors for 30 min, followed by the separation of the cytosolic fraction using a nuclear extract kit (Sigma).
The effect of TGase 2 expression on the level of I-κBα was examined in EcR 293 and SH-SY5Y cells. To control TGase 2 expression, a tetracycline-induced expression system was applied to EcR 293 cell line (FIG. 6A). In FIG. 6A, EcR 293 cells were collected before incubation (left), after incubation in a medium containing 1 μg/ml of tetracycline for 24 hours (center), and after incubation in a medium containing 1 μg/ml of tetracycline for 24 hours and then in a fresh medium containing no tetracycline for an additional 24 hours (right). […] To examine whether TGase 2 inhibitors can result in the same effect, SH-SY5Y/TG cells were incubated for 30 min with a TGase inhibitor, such as cystamine, idoacetamide, E2 peptide, or R2 peptide.

[4] = tested on: SH-SY5Y/TG cells; assay: LDH activity in medium and caspase-9 expression in proteasome inhibitor-treated SH-SY5Y/TG cells; conditions: SH-SY5Y/TG cells incubated for 6 hours with proteasome inhibitor
[5] = tested on: I-κBα; assay: Proteasome inhibitor treatment of SH-SY5Y/TG cells, Western blotting for I-κBα and ubiquitin; conditions: SH-SY5Y/TG cells incubated for 6 hours with proteasome inhibitor; for increased ubiquitinated I-κBα: Western blotting; for level of I-κBα: cytosol
Protocol: The cytosolic fractions were prepared using a nuclear extract kit (Sigma). The samples were separated from 10-20% gradient SDS gels in Tricine buffer (Invitrogen) and then transferred onto a polyvinylidene difluoride membrane (Invitrogen). Western blotting was conducted as established previously. Antibodies to NF-κBp65, I-κBα, phospho-IκB-α (Ser32), I-κB kinaseβ(IKK-β), phospho-IKKα (Ser180)/IKKβ(Ser181), and NF-κB activating kinase were obtained from Cell Signaling Technologies (Beverly, Mass.). Antibodies to NIK, IKKα, and α-topoisomerase I were obtained from Santa Cruz Biotechnology (Santa Cruz, Calif.). […] The blot was then developed by ECL (enhanced chemiluminescence) (Pierce, Milwaukee, Wis.). To determine the purity of extracted cytosolic and nuclear fractions, anti-LDH and anti-α-topoisomerase were used for the cytosolic fraction and the nuclear fraction, respectively.
To examine whether TGase 2 reduces the level of I-κBα via a ubiquitin-proteasome system, SH-SY5Y/TG cells were incubated for 6 hours with proteasome inhibitors, such as MG132, lactacystin, or carbobenzoxy-L-isoleucyl-gamma-t-butyl-L-alanyl-L-leucinal (FIG. 3A). The cytosol was extracted from cells and was carried out Western blotting for I-κBα and ubiquitin. […] If NF-κB expression induced by TGase 2 depends on the IKK/ubiquitin/proteasome pathway, the level of both I-κBα and ubiquitinated I-κBα should be increased.

[6] = tested on: SH-SY5Y/TG cells
[7] = biological target: full-length human NF-κB (p65) (human) (UniProt Q04206); assay: densitometry of co-immunoprecipitation / Western blot
Sequence of full-length human NF-κB (p65) (human) (Q04206 whole entry): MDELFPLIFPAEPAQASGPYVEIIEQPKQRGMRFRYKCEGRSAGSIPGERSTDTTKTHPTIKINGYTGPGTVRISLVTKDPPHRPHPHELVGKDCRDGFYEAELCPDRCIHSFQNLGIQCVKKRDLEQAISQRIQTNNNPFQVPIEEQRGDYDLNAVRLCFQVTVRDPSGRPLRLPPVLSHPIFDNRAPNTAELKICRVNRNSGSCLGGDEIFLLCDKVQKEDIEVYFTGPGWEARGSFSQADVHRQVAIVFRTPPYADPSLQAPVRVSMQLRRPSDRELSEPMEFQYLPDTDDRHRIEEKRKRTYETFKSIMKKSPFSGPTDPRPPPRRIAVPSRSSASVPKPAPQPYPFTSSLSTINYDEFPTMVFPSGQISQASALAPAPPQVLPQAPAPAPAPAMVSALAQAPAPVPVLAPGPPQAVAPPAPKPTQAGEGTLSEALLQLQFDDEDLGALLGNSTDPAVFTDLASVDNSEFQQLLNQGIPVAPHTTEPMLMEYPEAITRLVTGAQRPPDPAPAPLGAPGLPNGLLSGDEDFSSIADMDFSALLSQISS

[8] = biological target: T2, full-length human I-κBα (free form), P25963
T2 chain: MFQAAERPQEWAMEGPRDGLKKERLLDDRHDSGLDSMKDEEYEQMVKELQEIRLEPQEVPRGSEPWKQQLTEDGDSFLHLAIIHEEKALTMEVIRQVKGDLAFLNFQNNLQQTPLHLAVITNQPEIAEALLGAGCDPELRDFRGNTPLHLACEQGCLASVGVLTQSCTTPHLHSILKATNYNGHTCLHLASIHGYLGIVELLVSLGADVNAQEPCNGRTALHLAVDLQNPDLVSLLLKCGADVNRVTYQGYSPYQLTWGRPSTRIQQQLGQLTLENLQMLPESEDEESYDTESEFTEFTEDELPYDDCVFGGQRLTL

[9] = biological target: T3, human recombinant NF-κB(p52) protein, Q00653
T3 chain: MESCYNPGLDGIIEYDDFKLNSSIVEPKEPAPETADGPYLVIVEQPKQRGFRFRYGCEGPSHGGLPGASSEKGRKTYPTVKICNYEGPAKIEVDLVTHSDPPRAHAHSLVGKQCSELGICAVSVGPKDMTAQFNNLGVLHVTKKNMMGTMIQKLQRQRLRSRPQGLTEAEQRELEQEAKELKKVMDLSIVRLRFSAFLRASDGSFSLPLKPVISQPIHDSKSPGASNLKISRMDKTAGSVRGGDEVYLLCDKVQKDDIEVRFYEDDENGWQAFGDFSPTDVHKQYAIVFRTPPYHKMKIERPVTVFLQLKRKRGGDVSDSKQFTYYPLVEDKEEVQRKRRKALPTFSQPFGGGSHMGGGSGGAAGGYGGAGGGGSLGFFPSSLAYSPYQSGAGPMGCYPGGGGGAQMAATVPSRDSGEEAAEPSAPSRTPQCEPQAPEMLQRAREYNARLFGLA

Molecule: CNC(=N)NCCC[C@H](N)C(=O)O [NMMA, N^G-monomethyl-L-arginine]
- NO secretion [1]: reduced NO secretion in a dose-dependent manner
- TGase activity [2]: did not affect

Molecule: NCCSSCCN [cystamine, Cystamine]
- cytosolic I-κBα level [3]: reduce the cytosolic I-κBα level almost to the control level

Molecule: CC(=O)N[C@@H](CSC(=O)[C@]1([C@@H](O)C(C)C)NC(=O)[C@H](C)[C@@H]1O)C(=O)O [lactacystin]
- LDH activity in the medium [4]: not detected
- caspase-9 expression by Western blotting [4]: not detected
- increased ubiquitinated I-κBα [5]: not detected
- level of I-κBα [5]: increased

Molecule: CC(C)C[C@@H](C=O)NC(=O)[C@H](CC(C)C)NC(=O)[C@H](CC(C)C)NC(=O)OCc1ccccc1 [MG132] (Cbz-Leu-Leu-Leu-aldehyde)
- increased ubiquitinated I-κBα [5]: not detected
- level of I-κBα [5]: increased
- LDH activity in the medium [6]: not detected
- caspase-9 expression by Western blotting [6]: not detected

Molecule: KVLDGQDP (pro-elafin/antiflammin sequence) [R2 peptide]
- cytosolic I-κBα level [3]: reduce the cytosolic I-κBα level almost to the control level

Molecule: polymerized I-κBα (full-length human I-κBα cross-linked by TGase 2) (from UniProt P25963 1-317)
- loss of binding efficiency relative to free I-κBα [7]: > 90%

Molecule: CC[C@H](C)[C@H](NC(=O)OCc1ccccc1)C(=O)N[C@@H](CCC(=O)OC(C)(C)C)C(=O)N[C@@H](C)C(=O)N[C@H](C=O)CC(C)C [carbobenzoxy-L-isoleucyl-gamma-t-butyl-L-alanyl-L-leucinal] (Cbz-IE(OtBu)AL-aldehyde)
- increased ubiquitinated I-κBα [5]: not detected
- level of I-κBα [5]: increased
- LDH activity in the medium [6]: not detected
- caspase-9 expression by Western blotting [6]: not detected

Molecule: DPVKG (pro-elafin sequence) [E2 peptide]
- cytosolic I-κBα level [3]: reduce the cytosolic I-κBα level almost to the control level

Molecule: NC(=O)CI [idoacetamide, Iodoacetamide]
- cytosolic I-κBα level [3]: reduce the cytosolic I-κBα level almost to the control level

B1: guinea pig liver TGase 2 (protein)
chain: AEDLILERCDLQLEVNGRDHRTADLCRERLVLRRGQPFWLTLHFEGRGYEAGVDTLTFNAVTGPDPSEEAGTMARFSLSSAVEGGTWSASAVDQQDSTVSLLLSTPADAPIGLYRLSLEASTGYQGSSFVLGHFILLYNPRCPADAVYMDSDQERQEYVLTQQGFIYQGSAKFINGIPWNFGQFEDGILDICLMLLDTNPKFLKNAGQDCSRRSRPVYVGRVVSAMVNCNDDQGVLQGRWDNNYSDGVSPMSWIGSVDILRRWKDYGCQRVKYGQCWVFAAVACTVLRCLGIPTRVVTNFNSAHDQNSNLLIEYFRNESGEIEGNKSEMIWNFHCWVESWMTRPDLEPGYEGWQALDPTPQEKSEGTYCCGPVPVRAIKEGHLNVKYDAPFVFAEVNADVVNWIRQKDGSLRKSINHLVVGLKISTKSVGRDEREDITHTYKYPEGSEEEREAFVRANHLNKLATKEEAQEETGVAMRIRVGQNMTMGSDFDIFAYITNGTAESHECQLLLCARIVSYNGVLGPVCSTNDLLNLTLDPFSENSIPLHILYEKYGDYLTESNLIKVRGLLIEPAANSYVLAERDIYLENPEIKIRVLGEPKQNRKLIAEVSLKNPLPVPLLGCIFTVEGAGLTKDQKSVEVPDPVEAGEQAKVRVDLLPTEVGLHKLVVNFECDKLKAVKGYRNVIIGPA
- polymerization of I-κBα (in vitro cross-linking, Western blotting) [8]: resulted in completely polymerized I-κBα
- polymerization of NF-κB(p52) (in vitro cross-linking, Coomassie staining) [9]: The same polymerization was not observed
